Results on two compounds are retold here after ChEMBL document CHEMBL1139650, “In silico fragment-based discovery of DPP-IV S1 pocket binders” (Bioorg Med Chem Lett, 2006).

For the assay, the target named is Dipeptidyl peptidase 4 (Homo sapiens, UniProt P27487). In words: Inhibition of DPP4.
Dipeptidyl peptidase 4, sequence (P27487 whole entry): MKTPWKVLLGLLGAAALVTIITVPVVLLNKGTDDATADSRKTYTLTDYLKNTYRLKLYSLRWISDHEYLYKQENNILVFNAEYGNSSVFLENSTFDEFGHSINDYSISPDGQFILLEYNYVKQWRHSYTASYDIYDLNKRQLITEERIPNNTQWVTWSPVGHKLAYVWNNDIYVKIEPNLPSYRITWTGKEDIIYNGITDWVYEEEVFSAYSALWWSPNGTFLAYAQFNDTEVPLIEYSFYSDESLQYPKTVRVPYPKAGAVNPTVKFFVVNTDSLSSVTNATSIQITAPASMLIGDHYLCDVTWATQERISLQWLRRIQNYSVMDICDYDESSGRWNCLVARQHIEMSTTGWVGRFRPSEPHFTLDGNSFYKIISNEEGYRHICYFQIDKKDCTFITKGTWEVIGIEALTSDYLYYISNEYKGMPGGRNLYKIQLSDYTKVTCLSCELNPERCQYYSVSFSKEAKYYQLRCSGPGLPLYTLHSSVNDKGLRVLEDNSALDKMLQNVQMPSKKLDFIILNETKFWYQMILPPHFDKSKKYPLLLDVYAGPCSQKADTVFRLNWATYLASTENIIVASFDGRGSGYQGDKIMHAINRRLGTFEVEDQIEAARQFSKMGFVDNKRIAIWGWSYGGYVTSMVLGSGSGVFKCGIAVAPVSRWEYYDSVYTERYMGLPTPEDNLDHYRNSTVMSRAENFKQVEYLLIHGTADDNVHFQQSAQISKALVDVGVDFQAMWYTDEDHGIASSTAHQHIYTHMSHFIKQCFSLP

Turning to `N[C@H](c1ccccc1)[C@@H](N)c1ccccc1`, half-maximal inhibition (IC50) was put at 75 µM.

As for `N[C@H](c1ccccc1)[C@H](N)c1ccccc1`, the half-inhibitory concentration (IC50) was 45 µM.

In general, IC50 refers to the midpoint of a concentration-inhibition curve. Lower therefore signals inhibition by little substance.
